Assay results from article PMC5697638, “Identification of a Potent Phosphoinositide 3‐Kinase Pan Inhibitor Displaying a Strategic Carboxylic Acid Group and Development of Its Prodrugs” (Chemmedchem, 2017).

System: PC3 cells
Test: PC3 cell proliferation (MTT)
Format: cell-based
Design: key to Cell proliferation: active: Active: able to reduce proliferation to an extent greater than 50 %; inactive: able to reduce proliferation to an extent less than 50 %
Procedure: The biological activity of each prodrug was tested by analyzing their ability to decrease PC3 proliferation as a rapid test to evaluate the PI3Ks inhibitory activity after hydrolysis in a cell‐based assay. […] The choice of using such a cut‐off was due to the intent to identify rapidly which prodrug could be hydrolyzed in the assay to release the active compound. As expected, a good correlation between rate of hydrolysis and cellular activity was observed, and esters 64–68 and 70–73 were determined to be good candidates for topical use. We decided to focus our attention on ester 64, as its half‐life was a good compromise for a prodrug. The EC50 value of this ester was then evaluated on PC3 cells, and a value of (2.3±0.8) μM was obtained.
Cell proliferation: PC3 cell proliferation was measured with a 3‐(4,5‐dimethyl thiazol‐2‐yl)‐2,5‐diphenyltetrazolium bromide (MTT)‐based colorimetric assay (#11 465 007 001 Roche Diagnostic GmbH, Germany). PC3 cells were seeded in a 96‐well plate at a concentration of 10^4 cells mL^−1. PC3 cells were treated for 72 h with increasing concentrations of 64, and MTT was added. After ON solubilization of the MTT metabolite, formazan, the absorbance (λ=550–600 nm absorbance, with a reference wavelength of 650 nm) of each well was read in a multi‐well reader (Glomax multi detection system, Promega, model number 9301‐010). The percentage of proliferating cells was calculated by relating each absolute value to the control intended as PC3 cells treated with DMSO alone. An IC50 value was then derived by plotting all data on a dose–response curve (Graph Pad software) by using nonlinear regression fit (equation [log agonist] versus response).

COC(=O)c1cccc(Cn2cc(-c3cccc4c(=O)cc(N5CCOCC5)[nH]c34)nn2)c1 [Compound 64, Methyl 3‐{[4‐(2‐morpholino‐4‐oxo‐1,4‐dihydroquinolin‐8‐yl)‐1H‐1,2,3‐triazol‐1‐yl]methyl}benzoate]
effect on proliferation of PC3 cells (72 h of treatment): dose‐dependently decreased proliferation
EC50 (Homo sapiens, PC-3, PC3 proliferation, MTT, 72 h): 2300 ± 800 nM
Cell proliferation (PC3 cells, 10 μM of each prodrug): active
